In patent publication US6914045B2, “Glycopeptide antibiotics” (Wyeth Holdings Corporation, priority 2001, dated 2005):
In brackets after ≈: the same amount, converted by molar mass.

Assays:
Experiment in all cases: in vitro antibacterial evaluation, MIC by broth dilution
Format in all cases: cell-based
Enterococcus sp. = details: broth dilution, 18 hours at 35° C.
How it was run: (§1)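 MIC, the lowest antibiotic concentration preventing growth, was read across 64-0.06 μg/mL with 5×10^5 CFU/mL inoculum. Method followed NCCLS M7-A2 broth dilution using Mueller-Hinton II; Gram-positive strains covered recent methicillin-, penicillin- and/or vancomycin-resistant clinical isolates.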

Streptococcus sp. = details: broth dilution, 18 hours at 35° C.
How it was run: as §1

Staphylococcus sp. = details: broth dilution, 18 hours at 35° C.
How it was run: as §1

Escherichia coli = details: 18 hours at 35° C.

With `CC(c1ccccc1)C1NC(=O)CNC(=O)C(CO)NC(=O)C(C(O)C2CNC(=N)N2C2OC(CO)C(O)C(O)C2O)NC(=O)C(C(O)C2CNC(=N)N2)NC(=O)C(Cc2ccc(OC3OC(CO)C(OC4OC(CO)C(O)C(OCc5ccc(OCc6ccccc6)cc5)C4O)C(O)C3O)cc2)NC1=O` (stereo not drawn) [Example 231c, Cyclo[glycyl-β-methylphenylalanyl-O-[4-O-[3-O-[4-(phenylmethoxy)benzyl]hexopyranosyl]-hexopyranosyl]tyrosyl-3-(2-iminoimidazolidin-4-yl)seryl-3-(3-hexopyranosyl-2-iminoimidazolidin-4-yl)serylseryl]] the “MIC Enterococcus avium (GC 4558)” value (Enterococcus sp.) was 4 µg/mL (≈ 2.68 µM), the “MIC Enterococcus faecalis (ATCC 29212)” value (Enterococcus sp.) was 4 µg/mL (≈ 2.68 µM) and the “MIC Enterococcus faecalis (GC 2242)” value (Enterococcus sp.) was 4 µg/mL (≈ 2.68 µM). For the same compound, the “MIC Enterococcus faecalis (GC 2691)” value (Enterococcus sp.) was 8 µg/mL (≈ 5.36 µM), the “MIC Enterococcus faecalis (GC 3059)” value (Enterococcus sp.) was 4 µg/mL (≈ 2.68 µM) and the “MIC Enterococcus faecalis (GC 4552)” value (Enterococcus sp.) was 4 µg/mL (≈ 2.68 µM). For the same compound, the “MIC Enterococcus faecalis (GC 4553)” value (Enterococcus sp.) was 4 µg/mL (≈ 2.68 µM), the “MIC Enterococcus faecalis (GC 4554)” value (Enterococcus sp.) was 4 µg/mL (≈ 2.68 µM) and the “MIC Enterococcus faecalis (GC 6189)” value (Enterococcus sp.) was 4 µg/mL (≈ 2.68 µM). For the same compound, the “MIC Enterococcus faecium (GC 2243)” value (Enterococcus sp.) was 4 µg/mL (≈ 2.68 µM), the “MIC Enterococcus faecium (GC 4556)” value (Enterococcus sp.) was 4 µg/mL (≈ 2.68 µM) and the “MIC Enterococcus faecium (GC 4557)” value (Enterococcus sp.) was 4 µg/mL (≈ 2.68 µM). The “MIC Enterococcus faecalis (ATCC 29212)” value (Enterococcus sp.; inoculum 5×10^5 CFU/mL, strain ATCC 29212) was 4 µg/mL (≈ 2.68 µM), the “MIC Enterococcus faecalis (GC 2242)” value (Enterococcus sp.; inoculum 5×10^5 CFU/mL, strain GC 2242) was 4 µg/mL (≈ 2.68 µM) and the “MIC Enterococcus faecium (GC 2243)” value (Enterococcus sp.; inoculum 5×10^5 CFU/mL, strain GC 2243) was 4 µg/mL (≈ 2.68 µM). For the same compound, the “MIC Enterococcus faecalis (GC 2691)” value (Enterococcus sp.; inoculum 5×10^5 CFU/mL, strain GC 2691) was 8 µg/mL (≈ 5.36 µM), the “MIC Enterococcus faecalis (GC 3059)” value (Enterococcus sp.; inoculum 5×10^5 CFU/mL, strain GC 3059) was 4 µg/mL (≈ 2.68 µM) and the “MIC Enterococcus faecalis (GC 4552)” value (Enterococcus sp.; inoculum 5×10^5 CFU/mL, strain GC 4552) was 4 µg/mL (≈ 2.68 µM). For the same compound, the “MIC Enterococcus faecalis (GC 4553)” value (Enterococcus sp.; inoculum 5×10^5 CFU/mL, strain GC 4553) was 4 µg/mL (≈ 2.68 µM), the “MIC Enterococcus faecalis (GC 4554)” value (Enterococcus sp.; inoculum 5×10^5 CFU/mL, strain GC 4554) was 4 µg/mL (≈ 2.68 µM) and the “MIC Enterococcus faecium (GC 4556)” value (Enterococcus sp.; inoculum 5×10^5 CFU/mL, strain GC 4556) was 4 µg/mL (≈ 2.68 µM). For the same compound, the “MIC Enterococcus faecium (GC 4557)” value (Enterococcus sp.; inoculum 5×10^5 CFU/mL, strain GC 4557) was 4 µg/mL (≈ 2.68 µM), the “MIC Enterococcus avium (GC 4558)” value (Enterococcus sp.; inoculum 5×10^5 CFU/mL, strain GC 4558) was 4 µg/mL (≈ 2.68 µM) and the “MIC Enterococcus faecalis (GC 6189)” value (Enterococcus sp.; inoculum 5×10^5 CFU/mL, strain GC 6189) was 4 µg/mL (≈ 2.68 µM). The “MIC Streptococcus agalactiae (GC 4564)” value (Streptococcus sp.) was <0.12 µg/mL, the “MIC Streptococcus pneumoniae (ATCC 6301)” value (Streptococcus sp.) was <0.12 µg/mL and the “MIC Streptococcus pneumoniae (GC 1894)” value (Streptococcus sp.) was <0.12 µg/mL. For the same compound, the “MIC Streptococcus pneumoniae (GC 4565)” value (Streptococcus sp.) was <0.12 µg/mL, the “MIC Streptococcus pyogenes (GC 4563)” value (Streptococcus sp.) was <0.12 µg/mL and the “MIC Streptococcus pneumoniae (ATCC 6301)” value (Streptococcus sp.; inoculum 5×10^5 CFU/mL, strain ATCC 6301) was <0.12 µg/mL. The “MIC Streptococcus pneumoniae (GC 1894)” value (Streptococcus sp.; inoculum 5×10^5 CFU/mL, strain GC 1894) was <0.12 µg/mL, the “MIC Streptococcus pyogenes (GC 4563)” value (Streptococcus sp.; inoculum 5×10^5 CFU/mL, strain GC 4563) was <0.12 µg/mL and the “MIC Streptococcus agalactiae (GC 4564)” value (Streptococcus sp.; inoculum 5×10^5 CFU/mL, strain GC 4564) was <0.12 µg/mL. The “MIC Streptococcus pneumoniae (GC 4565)” value (Streptococcus sp.; inoculum 5×10^5 CFU/mL, strain GC 4565) was <0.12 µg/mL, the “MIC Coagulase Negative Staphylococcus (GC 4547)” value (Staphylococcus sp.) was 2 µg/mL (≈ 1.34 µM) and the “MIC Coagulase Negative Staphylococcus (GC 4548)” value (Staphylococcus sp.) was 0.5 µg/mL (≈ 0.335 µM). For the same compound, the “MIC Coagulase Negative Staphylococcus (GC 4549)” value (Staphylococcus sp.) was 0.5 µg/mL (≈ 0.335 µM), the “MIC Coagulase Negative Staphylococcus (GC 4551)” value (Staphylococcus sp.) was 1 µg/mL (≈ 0.67 µM) and the “MIC Coagulase Negative Staphylococcus (GC 6257)” value (Staphylococcus sp.) was 0.5 µg/mL (≈ 0.335 µM). The “MIC Staphylococcus aureus (ATCC 29213)” value (Staphylococcus sp.) was 1 µg/mL (≈ 0.67 µM), the “MIC Staphylococcus aureus (GC 1131)” value (Staphylococcus sp.) was 2 µg/mL (≈ 1.34 µM) and the “MIC Staphylococcus aureus (GC 3051)” value (Staphylococcus sp.) was 2 µg/mL (≈ 1.34 µM). The “MIC Staphylococcus aureus (GC 3053)” value (Staphylococcus sp.) was 2 µg/mL (≈ 1.34 µM), the “MIC Staphylococcus aureus (GC 4541)” value (Staphylococcus sp.) was 2 µg/mL (≈ 1.34 µM) and the “MIC Staphylococcus aureus (GC 4542)” value (Staphylococcus sp.) was 2 µg/mL (≈ 1.34 µM). The “MIC Staphylococcus aureus (GC 4544)” value (Staphylococcus sp.) was 2 µg/mL (≈ 1.34 µM), the “MIC Staphylococcus aureus (GC 4545)” value (Staphylococcus sp.) was 2 µg/mL (≈ 1.34 µM) and the “MIC Staphylococcus aureus-SMITH (GC 4543)” value (Staphylococcus sp.) was 1 µg/mL (≈ 0.67 µM). For the same compound, the “MIC Staphylococcus haemolyticus (GC 4546)” value (Staphylococcus sp.) was 1 µg/mL (≈ 0.67 µM), the “MIC Staphylococcus aureus (ATCC 29213)” value (Staphylococcus sp.; strain ATCC 29213) was 1 µg/mL (≈ 0.67 µM) and the “MIC Staphylococcus aureus (GC 1131)” value (Staphylococcus sp.; strain GC 1131) was 2 µg/mL (≈ 1.34 µM). The “MIC Staphylococcus aureus (GC 3051)” value (Staphylococcus sp.; strain GC 3051) was 2 µg/mL (≈ 1.34 µM), the “MIC Staphylococcus aureus (GC 3053)” value (Staphylococcus sp.; strain GC 3053) was 2 µg/mL (≈ 1.34 µM) and the “MIC Staphylococcus aureus (GC 4541)” value (Staphylococcus sp.; strain GC 4541) was 2 µg/mL (≈ 1.34 µM). For the same compound, the “MIC Staphylococcus aureus (GC 4542)” value (Staphylococcus sp.; strain GC 4542) was 2 µg/mL (≈ 1.34 µM), the “MIC Staphylococcus aureus-SMITH (GC 4543)” value (Staphylococcus sp.; strain GC 4543) was 1 µg/mL (≈ 0.67 µM) and the “MIC Staphylococcus aureus (GC 4544)” value (Staphylococcus sp.; strain GC 4544) was 2 µg/mL (≈ 1.34 µM). The “MIC Staphylococcus aureus (GC 4545)” value (Staphylococcus sp.; strain GC 4545) was 2 µg/mL (≈ 1.34 µM), the “MIC Staphylococcus haemolyticus (GC 4546)” value (Staphylococcus sp.; strain GC 4546) was 1 µg/mL (≈ 0.67 µM) and the “MIC Coagulase Negative Staphylococcus (GC 4547)” value (Staphylococcus sp.; strain GC 4547) was 2 µg/mL (≈ 1.34 µM). The “MIC Coagulase Negative Staphylococcus (GC 4548)” value (Staphylococcus sp.; strain GC 4548) was 0.5 µg/mL (≈ 0.335 µM), the “MIC Coagulase Negative Staphylococcus (GC 4549)” value (Staphylococcus sp.; strain GC 4549) was 0.5 µg/mL (≈ 0.335 µM) and the “MIC Coagulase Negative Staphylococcus (GC 4551)” value (Staphylococcus sp.; strain GC 4551) was 1 µg/mL (≈ 0.67 µM). For the same compound, the “MIC Coagulase Negative Staphylococcus (GC 6257)” value (Staphylococcus sp.; strain GC 6257) was 0.5 µg/mL (≈ 0.335 µM), the “MIC Escherichia coli (ATCC 25922)” value (Escherichia coli) was >128 µg/mL and the “MIC Escherichia coli (GC 4559)” value (Escherichia coli) was >128 µg/mL. The “MIC Escherichia coli (GC 4560)” value (Escherichia coli) was 2 µg/mL (≈ 1.34 µM).
